Source: ChEMBL document CHEMBL1201862, “PubChem BioAssay data set” (2004)
Calls of active or inactive are those of the source.

How the values were obtained:
[1] = target: G-protein coupled receptor 55 (Homo sapiens, UniProt Q9Y2T6); assay: selective activators of receptor GPR55 – imaging, U2OS cells, beta-arrestin-GFP redistribution, primary screen (AID 1961); assay type: functional
CAAX prenyl protease 2 = CAAX prenyl protease 2 (Saccharomyces cerevisiae S288c, UniProt Q03530); assay type: biochemical
Sequence of CAAX prenyl protease 2 (Q03530 whole entry): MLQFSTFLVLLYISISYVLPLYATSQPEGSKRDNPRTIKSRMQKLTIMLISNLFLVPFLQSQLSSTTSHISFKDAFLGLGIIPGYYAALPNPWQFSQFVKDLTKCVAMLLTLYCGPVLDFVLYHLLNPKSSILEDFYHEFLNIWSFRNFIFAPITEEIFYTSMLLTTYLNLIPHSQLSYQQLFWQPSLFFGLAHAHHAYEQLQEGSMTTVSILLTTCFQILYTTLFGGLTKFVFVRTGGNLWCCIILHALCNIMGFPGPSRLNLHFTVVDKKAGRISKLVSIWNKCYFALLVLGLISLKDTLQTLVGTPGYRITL

[2] = target: T1, Mannose-6-phosphate isomerase (Homo sapiens, UniProt P34949); assay: MPI inhibition at elevated mannose 6-phosphate – biochemical, fluorescence intensity, high mannose 6-phosphate, primary screen (AID 1220)
T1 sequence (P34949 whole entry): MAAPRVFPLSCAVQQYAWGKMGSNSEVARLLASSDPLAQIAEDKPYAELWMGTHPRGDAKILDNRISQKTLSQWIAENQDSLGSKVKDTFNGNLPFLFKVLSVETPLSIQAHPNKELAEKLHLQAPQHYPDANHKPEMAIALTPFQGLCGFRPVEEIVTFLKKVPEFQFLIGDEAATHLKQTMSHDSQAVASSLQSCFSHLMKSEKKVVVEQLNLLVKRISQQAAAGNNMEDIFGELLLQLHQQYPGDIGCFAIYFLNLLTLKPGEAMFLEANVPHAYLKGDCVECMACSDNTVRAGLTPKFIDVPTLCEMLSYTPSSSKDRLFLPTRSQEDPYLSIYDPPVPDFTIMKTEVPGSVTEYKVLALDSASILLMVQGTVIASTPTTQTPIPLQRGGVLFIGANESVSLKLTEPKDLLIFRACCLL

[3] = target: T2, Rac GTPase-activating protein 1 (Homo sapiens, UniProt Q9H0H5); assay: blockers of MgcRacGAP-driven Rac1 GTP hydrolysis – biochemical, ADP Hunter fluorescence, primary and confirmatory, confirmation (AID 624330); assay type: functional
T2 sequence (Q9H0H5 whole entry): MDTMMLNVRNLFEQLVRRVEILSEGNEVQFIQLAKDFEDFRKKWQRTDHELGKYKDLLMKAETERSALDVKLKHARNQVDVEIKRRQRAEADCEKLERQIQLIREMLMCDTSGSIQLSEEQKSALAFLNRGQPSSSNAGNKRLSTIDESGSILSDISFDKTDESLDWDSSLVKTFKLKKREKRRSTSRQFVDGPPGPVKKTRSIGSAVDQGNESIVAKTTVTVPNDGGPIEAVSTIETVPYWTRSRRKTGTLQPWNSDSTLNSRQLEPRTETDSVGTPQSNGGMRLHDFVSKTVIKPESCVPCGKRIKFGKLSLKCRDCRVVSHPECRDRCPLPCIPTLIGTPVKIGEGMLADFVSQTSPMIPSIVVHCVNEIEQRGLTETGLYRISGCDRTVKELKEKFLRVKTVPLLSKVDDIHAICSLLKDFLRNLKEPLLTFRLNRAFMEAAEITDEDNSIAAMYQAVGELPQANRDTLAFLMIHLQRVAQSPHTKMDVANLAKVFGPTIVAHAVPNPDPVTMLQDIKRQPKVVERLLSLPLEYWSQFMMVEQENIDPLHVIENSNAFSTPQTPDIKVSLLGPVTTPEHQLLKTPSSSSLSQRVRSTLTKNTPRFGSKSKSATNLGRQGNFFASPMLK

[4] = target: T1, Mannose-6-phosphate isomerase; assay: MPI enzyme activity inhibition – biochemical, fluorescence intensity, coupled assay, primary screen (AID 1209)
Streptokinase A = target: T3, Streptokinase A (Streptococcus pyogenes serotype M1, UniProt P10520); assay: viability-normalized secreted streptokinase activity reduction – plasminogen activation absorbance, OD405, dose response (AID 1914); assay type: functional, Streptococcus pyogenes M1 GAS;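 note: secreted streptokinase activity via plasminogen activation per viability signal from cell pellet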
T3 sequence (P10520 whole entry): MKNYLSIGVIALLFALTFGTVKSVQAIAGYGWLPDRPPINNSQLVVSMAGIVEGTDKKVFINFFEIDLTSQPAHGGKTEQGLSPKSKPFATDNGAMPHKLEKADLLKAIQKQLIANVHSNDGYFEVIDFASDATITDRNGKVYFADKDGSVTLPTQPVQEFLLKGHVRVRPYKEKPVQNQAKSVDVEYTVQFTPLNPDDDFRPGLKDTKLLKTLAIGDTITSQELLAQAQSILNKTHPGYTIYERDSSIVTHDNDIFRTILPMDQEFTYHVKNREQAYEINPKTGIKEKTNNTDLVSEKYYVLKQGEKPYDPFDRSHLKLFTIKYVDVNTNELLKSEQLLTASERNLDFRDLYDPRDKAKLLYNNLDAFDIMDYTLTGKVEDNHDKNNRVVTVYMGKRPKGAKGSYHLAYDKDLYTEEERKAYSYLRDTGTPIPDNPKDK

[5] = system: Streptococcus sp. 'group A'; assay: Streptococcus pyogenes SK(-)GAS viability under kanamycin – luminescence, BacTiterGlo, confirmation, counter-screen for streptokinase expression inhibitor project, dose response (AID 1900); assay type: functional, organism-based
Streptococcus = assay: GAS UMAA2166 growth inhibition – luminescence, BacTiterGlo, counter-screen for streptokinase expression inhibitor project, dose response (AID 1915); assay type: functional, organism-based;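 note: potency for reduction of bacterial viability or growth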
[6] = Luminescence Cell-Based Dose Retest to Confirm Inhibitors of Cancer Stem Cells. [Related pubchem assays (depositor defined):AID2717, AID2721]; assay type: functional; conditions: Homo sapiens
[7] = target: Eukaryotic translation initiation factor 4H (Homo sapiens, UniProt Q15056); assay: inhibitors of translation initiation factor eIF4H – SAR follow-up (AID 435011); assay type: functional
[8] = target: Polyadenylate-binding protein 1 (Homo sapiens, UniProt P11940); assay: PABP inhibition in translation initiation, SAR follow-up (AID 435018); assay type: functional
Sequence of Polyadenylate-binding protein 1 (P11940 whole entry): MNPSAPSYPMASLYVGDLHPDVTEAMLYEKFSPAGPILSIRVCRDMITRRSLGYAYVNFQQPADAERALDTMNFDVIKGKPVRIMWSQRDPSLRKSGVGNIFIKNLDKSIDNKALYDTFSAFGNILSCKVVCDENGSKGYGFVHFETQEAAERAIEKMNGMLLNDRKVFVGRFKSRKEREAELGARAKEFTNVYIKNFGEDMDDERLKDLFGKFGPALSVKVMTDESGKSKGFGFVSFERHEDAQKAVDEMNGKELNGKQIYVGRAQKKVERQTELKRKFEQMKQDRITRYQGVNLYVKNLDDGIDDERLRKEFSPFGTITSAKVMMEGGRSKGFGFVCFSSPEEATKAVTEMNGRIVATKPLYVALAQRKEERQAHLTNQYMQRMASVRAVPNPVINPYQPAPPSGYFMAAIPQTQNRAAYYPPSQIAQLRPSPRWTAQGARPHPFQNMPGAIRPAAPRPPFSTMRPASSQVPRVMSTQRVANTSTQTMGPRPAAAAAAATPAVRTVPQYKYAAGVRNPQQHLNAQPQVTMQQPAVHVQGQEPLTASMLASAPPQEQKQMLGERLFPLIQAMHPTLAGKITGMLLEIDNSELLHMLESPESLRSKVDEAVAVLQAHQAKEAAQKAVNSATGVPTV

Sequence of G-protein coupled receptor 55 (Q9Y2T6 whole entry): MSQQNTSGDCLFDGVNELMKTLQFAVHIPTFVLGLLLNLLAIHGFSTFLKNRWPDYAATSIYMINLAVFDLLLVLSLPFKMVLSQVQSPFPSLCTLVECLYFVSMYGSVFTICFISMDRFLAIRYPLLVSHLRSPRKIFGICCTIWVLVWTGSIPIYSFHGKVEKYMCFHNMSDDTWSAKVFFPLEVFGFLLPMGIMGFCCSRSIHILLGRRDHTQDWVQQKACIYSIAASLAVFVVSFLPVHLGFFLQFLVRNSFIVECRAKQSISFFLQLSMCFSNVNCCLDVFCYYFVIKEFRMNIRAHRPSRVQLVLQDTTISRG

With `Cc1c(C(=O)c2ccc(Cl)c(Cl)c2)cnc2cc3c(cc12)OCO3` the EC50 [1] was > 32 µM (inactive).
With `OCCN(CCO)c1ccc2ccccc2c1` the AC50 (CAAX prenyl protease 2) was 63.8 µM (active), the IC50 [2] was > 50 µM (not active) and the IC50 [3] was 56.3 µM (active). The IC50 [4] was 21.3 µM (active).
With `CC(C)Cn1c(O)c(N=NC(=O)c2cccc(S(=O)(=O)N3CCCCC3)c2)c2ccccc21` the EC50 (Streptokinase A) was > 150 µM (not active), the EC50 [5] was 5.53 µM (active) and the EC50 (Streptococcus) was 34.3 µM (active). The AC50 [6] was 20.5 µM (active) and the EC50 [1] was 4.75 µM (active).
In the case of `Cc1cccc(NC(=O)CSc2ccc(-c3ccco3)nn2)c1`, the IC50 [7] is reported as > 100 µM (inactive) and the IC50 [8] is reported as > 100 µM (inactive).
